Earlier results in patent publication US20200000714A1, “OPHTHALMIC COMPOSITION COMPRISING PVP-I” (MEDIVIS S.R.L., priority 2016, published 2020).
Like-named read-outs stand apart in the source and are kept apart here.

Povidone-iodine [PVP-I]
free molecular iodine I2 concentration (10% solutions of PVP-I): about 1 ppm | free molecular iodine I2 concentration (solutions with PVP-I concentration of 0.1%): about 20 ppm
